{"source": "patent US20250000874A1", "about": "“BACTERIAL METABOLITES AND THEIR USE IN REDUCING INFLAMMATION” (LOYOLA UNIVERSITY OF CHICAGO, priority 2023, published 2025)", "system": "BMDMs", "test": "JE on TNF-α and IL-6 secretion by BMDMs upon LPS and TLR agonists", "type": "cell-based, mouse", "method": "(§1) FIG. 16. The Effect of JE on TNF-α Secretion by BMDMs in Response to Stimulation by Different Concentrations of LPS. BMDMs were isolated and cultured, as mentioned before. Macrophages were incubated overnight with JE at a concentration of 50 μM at 37° C., 5% CO2. The next day, they were stimulated with two-fold dilutions of LPS at a starting concentration of 5 ng/ml for 3 hours. Supernatants were collected, and TNF-α was measured using ELISA. Data are presented as mean±SEM (n=6). *p<0.05; **p<0.01; ***p<0.001. One of two experiments is shown.\nas §1, with “17.” for “16.”, “IL-6” for “TNF-α”, “cultured” for “cultured,”, “described above.” for “mentioned before.”\nFIG. 18. The Effect of JE on TNF-α Secretion by BMDMs in Response to Stimulation by TLR Agonists. BMDMs were isolated and cultured as described above. Macrophages were incubated overnight with JE at a concentration of 50 μM at 37° C., 5% CO2. The following day, they were stimulated with 1 μg/ml of FLG-ST, […] of ODN, 50 μg/ml of Poly: IC, 3 μg/ml of Imiquimod, 3 μg/ml and 1.5 μg/ml of PAM-3SCk, 1 μg/ml of FSL-1 for 3 hours. Supernatants were collected, and TNF-α was measured using ELISA. Data are presented as mean±SEM (n=6). *p<0.05; **p<0.01; ***p<0.001. One of three experiments is shown.\nMurine macrophages, both RAW 264.7 macrophages and bone marrow-derived macrophages (BMDMs), were seeded and then pretreated overnight with the metabolite JE. The following day, the macrophages were stimulated with one of TLR agonists, including LPS, FLA-ST, ODN, Pam3SCK4, Poly: IC LMW, FSL, and Imiquimod for 3 hours, then the production of TNF-α, and IL-6 in the culture supernatants was measured by ELISA.\nTherefore, I stimulated them with two-fold dilution of the concentration I used to stimulate RAW 264.7. […] On the other hand, JE could reduce IL-6 secretion by BMDMs at 5 ng/ml of LPS as depicted in FIG. 17.\nSimilar to treatment of RAW 264.7 macrophages with TLR agonists, I pretreated BMDMs with JE then stimulated them with FLG, ODN, PIC, Imiquimod, PAM-3SCK, and FSL-1. […] After 3 hours, Supernatants were collected, TNF-α and IL-6 were quantified by ELISA."}
{"smiles": "CC(=O)O[C@@H]1CC[C@H]2[C@H]3CC[C@H]4CC(F)(F)CC[C@]4(C)[C@H]3CC[C@]12C", "note": "[JE, 3,3-Difluoro-5-alpha-androstan-17-beta-yl acetate]", "values": [{"measurement": "TNF-α secretion", "setting": "JE 50 μM overnight, LPS 0.6 ng/ml 3 hours", "value": "Significant inhibition"}, {"measurement": "TNF-α secretion", "setting": "JE 50 μM overnight, LPS 1.25 ng/ml 3 hours", "value": "Significant inhibition"}, {"measurement": "IL-6 secretion", "setting": "JE 50 μM overnight, LPS 5 ng/ml 3 hours", "value": "could reduce"}, {"measurement": "TNF-α secretion upon stimulation with TLR agonists", "setting": "JE 50 μM overnight, FLG, ODN, PIC, Imiquimod, PAM-3SCK, FSL-1, 3 hours", "value": "decreased"}, {"measurement": "IL-6 secretion upon stimulation with TLR agonists", "setting": "JE 50 μM overnight, TLR agonists 3 hours", "value": "decreased"}, {"measurement": "IL-6 production", "setting": "JE, LPS 10 ng/ml", "value": "failed to decrease"}, {"measurement": "TNF-α production", "setting": "JE, LPS 10 ng/ml", "value": "failed to decrease"}, {"measurement": "TNF-α production", "setting": "ODN and PAM-3SCK, previous experiment before two-fold dilutions", "value": "did not significantly reduce"}]}
